The test system of this experiment is five FDA/ISO specified test organisms. Kind of experiment: Antimicrobial activity against the five-microbial panel, FDA/ISO disinfection criteria. The experiment is classed as cell-based. The settings on record: for stand-alone criteria: 10 ppm MA. The procedure:
The following is the procedure by which various antimicrobial agents and solutions are tested for their ability to reduce microbial loads over short periods of time, typically 24 hours and less. The procedure is a basic microbiology challenge test, which involves the inoculation of test product aliquots with a known number of viable cells of several test organisms, and assay for the survivors at various time intervals. The results are used to calculate log drops at soak times and construct kill-curves (graphs of survivors versus time) if desired. Candida albicans, ATCC 10231, is one of five organisms specified per FDA and ISO/CLI tests for the testing of contact lens disinfectants (FDA Premarket Notification (510k) Guidance Document for Contact Lens Care Products, Appendix B, Apr. 1, 1997 and ISO/FDIS 14729: Ophthalmic optics-Contact lens care products-Microbiological requirements and test methods for products and regimens for hygienic management of contact lenses, January 2001). Contact lens disinfectants are also known as contact lens multi-purpose solutions when they are used for rinsing, cleaning, disinfection, storage and rewetting contact lenses. The five FDA/ISO specified test organisms are listed below: • Serratia marcescens, ATCC 13880 • Staphylococcus aureus, ATCC 6538 • Pseudomonas aeruginosa, ATCC 9027 • Candida albicans, ATCC 10231 • Fusarium solani, ATCC 36031 Candida albicans is often the most resistant of the five organisms to commonly used cationic antimicrobial agents in contact lens multi-purpose solutions. Thus, achievement of adequate antimicrobial activity against Candida is often the most difficult task to pass a particular disinfection efficacy standard. FDA and ISO guidelines specify two disinfection efficacy standards, indicated in the table below: Stand Alone Disinfectant (Primary) Criteria: [table] The specific test procedure for testing antimicrobial activity against the five FDA/ISO specified test organisms is as follows (C. albicans is provided as a specific example): Test samples are sterile-filtered through a 0.22 micron sterile filter into sterile plastic high density polyethylene bottles or plastic flasks. A 10-mL aliquot of test sample is aseptically transferred into a sterile polystyrene plastic test tube. Sterile saline (0.90 w/v % NaCl) with 0.05 w/v % Polysorbate 80 (SS+TWEEN) is transferred into a separate control tube. All samples and control are stored at 20-25° C. throughout the duration of the test.

The structures appear in SMILES notation.

`CCCCCCCCCCCCCCN` [Myristylamine]: the stand-alone criteria entry (Tween 80:MA ratio 7.4) is “fail to meet the stand-alone criteria” and the stand-alone criteria entry (Tween 80:MA ratio 7.4, with addition of Polyquaternium-1) is “can still be a stand-alone disinfectant product”. Moreover, the anti-bacteria activity result (TPGS:MA ratio of 40) is given as “lost considerably”. The “anti-fungal activity (Ca and Fs)” value (TPGS:MA ratio of up to 60) is listed as “still seen”.

The values are drawn from patent US20050228046A1, “Alkylamine as an antimicrobial agent in ophthalmic compositions” (ADVANCED MEDICAL OPTICS, INC., priority 2004, published 2005).
